Reference: patent US20250213547A1, “METHODS OF TREATING NEUROLOGICAL DISEASES” (priority 2022, published 2025)
Read-outs that look alike come from different tables or passages of the source.

Experiments:
[1] = Healthy Japanese subjects, Part 2 (100, 200, 300 mg BID up-titration): PK of TAK-935 and M-I; type: in vivo, human; settings: human, plasma, oral, plasma; for Vd/F: read-out: Vz/F; for half-life: read-out: t1/2z (terminal disposition phase half-life) (converted)
Description: (§1) This study consisted of 2 parts, and was a randomized, double-blind, placebo-controlled study to assess safety, tolerability, and PK and PD of TAK-935 when administered orally in healthy Japanese subjects.
TAK-935 or placebo was administered to the 9 subjects at the dose of 100 mg BID from Day 1 to Day 7, then 200 mg BID from Day 8 to Day 14, and finally 300 mg BID from Day 15 to Day 21, and safety, PK and PD were investigated. The planned dose levels of TAK-935 to be evaluated are outlined in Table 40a.
After the screening visit, eligible participants checked—in on Day-2. On Day 1, eligible participants were randomized 6:3 to TAK-935 or placebo in double-blinded fashion. No stratification variables were used for randomization. Study drug was administered every day by oral administration of multiple dosing with up-titration of TAK-935 to 9 subjects firstly at 100 mg BID from Day 1 to Day 7, then at 200 mg BID from Day 8 to Day 14, and finally at 300 mg BID from Day 15 to Day 21, successively. The subjects were discharged on Day 24. Intensive PK samplings were performed on Day 1, Day 7, Day 14 and Day 21.
Subjects received multiple oral doses of TAK-935 or placebo escalating from 100 mg BID, 200 mg BID, and then to 300 mg BID with 150 mL of water for 7 days per each dose level. For the morning dose, subjects were kept fasted for at least 8 hours before administration and up to 2 hours after administration. The evening dose was administered at any time between 8 hours and 12 hours after the morning dose, but prior to the evening meal except for Days 1, 7, 14, and 21. On Days 1, 7, 14, and 21, the evening dose was administered 12 hours after the morning dose and prior to the evening meal. • Identity of Study Drugs • Study drug refers to TAK-935 100 mg tablet and matching placebo. • Compound: Code name: TAK-935 • Dosage forms: TAK-935 100 mg tablets and matching placebo tablets were used in this study. The TAK-935 tablets and placebo tablets were yellow-red film-coated tablets for oral administration.
Blood samples for PK analysis of TAK-935 and its metabolites (M-I) were collected into blood collection tubes (vacutainer) containing the anticoagulant K2EDTA (Table 40e and Table 40f).
The PK parameters of TAK-935 and its metabolites (M-I) were determined from the concentration-time profiles for all evaluable subjects. Actual sampling times, rather than scheduled sampling times, were used in all computations involving sampling times. The following PK parameters were calculated from plasma concentrations of TAK-935 and its metabolites (M-I), unless otherwise specified: […]

[2] = Adult DEE patients (Part A/Part B): safety and tolerability; settings: human, in vivo, 60 days
[3] = Healthy Japanese subjects: safety and tolerability; type: in vivo, human
Text: Primary Objective: To evaluate the safety and tolerability of TAK-935 in healthy Japanese subjects when administered as single oral dose or multiple oral doses with titration. Secondary Objective: To evaluate the PK of TAK-935 in healthy Japanese subjects when administered as single oral dose or multiple oral doses with titration.
as §1
The primary endpoint of the study included: Safety endpoint: Percentage of subjects who experience at least 1 TEAE Secondary endpoints included:
• Laboratory tests. • Vital signs. • ECG parameters.

[4] = 100 mg, Day 7, TAK-935 100 mg BID, mean
[5] = 200 mg, Day 14, TAK-935 200 mg BID, mean
[6] = 300 mg, Day 21, TAK-935 300 mg BID, mean
[7] = multiple doses 100-300 mg BID, TAK-935 group

O=C(c1cccnc1-c1ccncc1)N1CCC(O)(Cc2ccccc2)CC1 [soticlestat]
AUC ([1]; 100 mg, Day 7, TAK-935 100 mg BID, mean, read-out: AUCτ (AUC during a dosing interval)): 224 ng·h/mL | Cmax ([1]; 100 mg, Day 7, TAK-935 100 mg BID, mean, read-out: Cmax): 204 ng/mL | Vd/F [1, 4]: 2940 L | half-life [1, 4]: 218 min | Tmax ([1]; 100 mg, Day 7, TAK-935 100 mg BID, median, read-out: tmax): 30 min | Tmax ([1]; 100 mg, TAK-935, Day 1, 100 mg BID, read-out: Median Tmax): 45 min | AUC ([1]; 100 mg, TAK-935, Day 1, first dose 100 mg BID, read-out: Mean AUCτ): 232 ng·h/mL | Cmax ([1]; 100 mg, TAK-935, Day 1, first dose 100 mg BID, read-out: mean Cmax): 255 ng/mL | AUC ([1]; 100 mg, TAK-935, Day 7, 100 mg BID, read-out: Mean AUCτ): 224 ng·h/mL | Cmax ([1]; 100 mg, TAK-935, Day 7, 100 mg BID, read-out: mean Cmax): 204 ng/mL | AUC ([1]; 200 mg, Day 14 (200 mg BID), Part 2, Geo Mean, read-out: AUC1ast): 788 ng·h/mL | AUC ([1]; 200 mg, Day 14 (200 mg BID), Part 2, Geo Mean, read-out: AUCtau): 789 ng·h/mL | Cmax ([1]; 200 mg, Day 14 (200 mg BID), Part 2, Geo Mean, read-out: Cmax): 836 ng/mL | Tmax ([1]; 200 mg, Day 14 (200 mg BID), Part 2, Mean, read-out: Tmax): 40 min | AUC ([1]; 200 mg, Day 14 (200 mg BID), Part 2, Median, read-out: AUC1ast): 794 ng·h/mL | AUC ([1]; 200 mg, Day 14 (200 mg BID), Part 2, Median, read-out: AUCtau): 794 ng·h/mL | Cmax ([1]; 200 mg, Day 14 (200 mg BID), Part 2, Median, read-out: Cmax): 1030 ng/mL | Vd/F ([1]; 200 mg, Day 14 (200 mg BID), Part 2, Median): 1030 L | AUC(0-t) [1, 5]: 860 ng·h/mL | AUC ([1]; 200 mg, Day 14, TAK-935 200 mg BID, mean, read-out: AUCτ (AUC during a dosing interval)): 861 ng·h/mL | Cmax ([1]; 200 mg, Day 14, TAK-935 200 mg BID, mean, read-out: Cmax): 980 ng/mL | Vd/F [1, 5]: 1090 L | half-life [1, 5]: 157 min | Tmax ([1]; 200 mg, Day 14, TAK-935 200 mg BID, median, read-out: tmax): 30 min | AUC ([1]; 200 mg, TAK-935, Day 14, 200 mg BID, read-out: Mean AUCτ): 861 ng·h/mL | Cmax ([1]; 200 mg, TAK-935, Day 14, 200 mg BID, read-out: mean Cmax): 980 ng/mL | AUC ([1]; 300 mg, Day 21 (300 mg BID), Part 2, Geo Mean, read-out: AUC1ast): 1960 ng·h/mL | AUC ([1]; 300 mg, Day 21 (300 mg BID), Part 2, Geo Mean, read-out: AUCtau): 1960 ng·h/mL | Cmax ([1]; 300 mg, Day 21 (300 mg BID), Part 2, Geo Mean, read-out: Cmax): 1940 ng/mL | Tmax ([1]; 300 mg, Day 21 (300 mg BID), Part 2, Mean, read-out: Tmax): 32.5 min | AUC ([1]; 300 mg, Day 21 (300 mg BID), Part 2, Median, read-out: AUC1ast): 2040 ng·h/mL | AUC ([1]; 300 mg, Day 21 (300 mg BID), Part 2, Median, read-out: AUCtau): 2040 ng·h/mL | Cmax ([1]; 300 mg, Day 21 (300 mg BID), Part 2, Median, read-out: Cmax): 1600 ng/mL | Vd/F ([1]; 300 mg, Day 21 (300 mg BID), Part 2, Median): 620 L | AUC(0-t) [1, 6]: 2020 ng·h/mL | AUC ([1]; 300 mg, Day 21, TAK-935 300 mg BID, mean, read-out: AUCτ (AUC during a dosing interval)): 2020 ng·h/mL | Cmax ([1]; 300 mg, Day 21, TAK-935 300 mg BID, mean, read-out: Cmax): 2060 ng/mL | Vd/F [1, 6]: 640 L | half-life [1, 6]: 176 min | Tmax ([1]; 300 mg, Day 21, TAK-935 300 mg BID, median, read-out: tmax): 30 min | AUC ([1]; 300 mg, TAK-935, Day 21, 300 mg BID, read-out: Mean AUCτ): 2020 ng·h/mL | Cmax ([1]; 300 mg, TAK-935, Day 21, 300 mg BID, read-out: mean Cmax): 2060 ng/mL | Tmax ([1]; TAK-935, Day 7, Day 14 and Day 21, read-out: Median Tmax): 30 min | Insomnia, n participants [2]: 3 n | Lethargy, n participants [2]: 2 n | Seizure, n participants [2]: 3 n | deaths, SAEs, TEAEs leading to discontinuation ([3]; healthy Japanese subjects): No deaths, SAEs, or TEAEs leading to study drug discontinuation | intensity of TEAEs ([3]; healthy Japanese subjects): All of the TEAEs were mild | subjects who experienced TEAEs [3, 7]: 5 subjects | subjects with drug-related TEAEs [3, 7]: 3 subjects | tolerability ([3]; single dose up to 1200 mg and multiple doses 100 to 300 mg BID): well tolerated
